Measured values taken from US20070037848A1, “Treatment of neurological conditions” (priority 2003, published 2007).
Entries after “also recorded” stand apart in the source; their conditions may differ.

How the values were obtained:
Aβ accumulation = details: cited from earlier work
[1] = system: patients with probable AD; assay: Phase II clinical trial of clioquinol: cognitive function (ADAS-Cog); assay type: in vivo, human; details: for increase in ADAS-Cog scores: CQ group
Description: On the basis of the pre-clinical data, a Phase II clinical trial was prepared of CQ for the treatment of AD. Inclusion criteria for this Phase II study targeted a region on the ADAS-cog scale (20-45) where patients are moderately demented, still living at home, but anticipating an accelerated deterioration as part of the natural history of AD, over the next 12 months. Because the primary outcome was efficacy, a triple-blind design was chosen.
Criteria for inclusion in the study were:— • (a) informed consent; • (b) a diagnosis of probable AD by NINCDS-ADRDA criteria (McKhann et al., Neurology 34: 939-944, 1984); • (c) AD Assessment Scale-Cognitive (ADAS-Cog) score of 20-45 inclusive (Rosen et al., Am. J. Psychiatry 141: 1356-1364, 1984); • (d) Mini Mental State Examination (MMSE) score of 10-24 inclusive (Folstein et al., J. Psychiatr. Res. 12: 189-198, 1975); • (e) on donepezil hydrochloride 5 mg or 10 mg for at least six months; • (f) relative or carer willing and able to support the trial; • (g) able to complete trial examinations; and • (h) primary sensorial functions intact.
The study was a triple blind, placebo-controlled, randomized design. Thirty-six patients and their carers were recruited to participate, with patients being randomized to receive either CQ or placebo; there were 18 patients in each arm. The duration of the study was 36 weeks. CQ dosage was 125 mg twice daily from weeks 0-12, increased to 250 mg twice daily from weeks 13-24, and finally, 375 mg twice daily from weeks 25-36.
The primary efficacy variable was a change in the baseline score on the AD Assessment Scale (ADAS), which was conducted at baseline and at weeks 4, 12, 24 and 36. This readout was chosen for comparability of treatment effects with current therapeutic agents, such as donepezil, for which efficacy trials also used ADAS as their primary outcome measure (Rogers et al., Neurology 50: 136-145, 1998). Although numerous neuropsychological tests could be considered as secondary measures, it was necessary to avoid fatiguing the subjects at review. Therefore the only other cognitive test performed was the Mini-Mental State Exam (MMSE), which is well characterized and easily implemented. The Clinician's Interview Based Impression of Change (CIBIC), a subjective observational index also used in efficacy trials of acetylcholinesterase inhibitors, was conducted at baseline and at weeks 12, 24 and 36 by an independent researcher who was not part of the study team. Blood samples for measurement of plasma Aβ and plasma zinc and copper were all taken four weekly, by antecubital fossa venepuncture. […]

plasma Cu = assay: Phase II clinical trial: plasma copper; assay type: in vivo, human; details: administration of CQ vs placebo
Description: (§1) Screening procedures consisted of a full medical history, full physical, neurological and ophthalmic examination, blood and urine tests and psychometric tests (ADAS-Cog, MMSE) to confirm the patient's eligibility for the study. Nerve conduction tests and visual evoked responses were conducted between the screening and baseline visits to provide a baseline measurement and to exclude patients with undiagnosed peripheral neuropathies or visual disturbances. Blood was collected for ApoE allotyping and determination of baseline plasma levels of CQ, metals and Aβ prior to randomization.
(§2) The primary efficacy variable was a change in the baseline score on the AD Assessment Scale (ADAS), which was conducted at baseline and at weeks 4, 12, 24 and 36. This readout was chosen for comparability of treatment effects with current therapeutic agents, such as donepezil, for which efficacy trials also used ADAS as their primary outcome measure (Rogers et al., Neurology 50: 136-145, 1998). Although numerous neuropsychological tests could be considered as secondary measures, it was necessary to avoid fatiguing the subjects at review. Therefore the only other cognitive test performed was the Mini-Mental State Exam (MMSE), which is well characterized and easily implemented. […]

plasma Zn = assay: Phase II clinical trial: plasma zinc; assay type: in vivo, human
Description: as §1, §2

[2] = Safety measures / adverse event reporting in the Phase II trial; assay type: in vivo, human
Description: (§3) Standard adverse event reporting to a safety monitoring committee, consisting of physicians independent of the study, was conducted to review adverse events at three monthly intervals and on an emergent basis. Following baseline, safety visits were conducted at weeks 2, 4, 8, 12, 16, 20, 24, 26, 28, 32 and 36. The patient and carer were questioned about any changes which might have occurred in the patient's health or medications since the last visit. Standard biochemical, renal and liver function, full blood examination, serum vitamin B12 and folate levels, blood pressure and weight were documented at each visit. A neurological examination was conducted at each visit to assess for peripheral neuropathy and optic neuropathy, and visual evoked responses, nerve conduction studies and a full ophthalmic examination (visual acuity, colour vision, fundal examination and visual field) were conducted at screening, at week 18 and at two weeks after trial completion. An ECG was performed at baseline and at weeks 12 and 24.

plasma Aβ40 = assay: Phase II clinical trial: plasma Aβ40; assay type: in vivo, human
Description: as §1, §2

plasma Aβ42 = assay: Phase II clinical trial: plasma Aβ42; assay type: in vivo, human
Description: as §1, §2

[3] = Nerve conduction studies (peripheral nerve latency) in the Phase II trial; assay type: in vivo, human
Description: as §1, §3

For Oc1c(I)cc(Cl)c2cccnc12 [CQ, iodochlorhydroxyquin], the “effect on Aβ deposits in transgenic mice” value (Aβ accumulation; 30 mg/kg body weight by gavage (Cherny et al., 2001)) is given as “effective”, the “inhibiting Aβ accumulation in transgenic mice” value (Aβ accumulation; 20-30 mg/kg orally daily, five days per week, two to three months) is given as “markedly effective” and the “increase in ADAS-Cog scores” value ([1]; less-severely affected patients) is given as “only small increases”. The “increase in ADAS-Cog scores” value ([1]; more severely-affected patients) was “negligible increase”, the “effect of treatment on ADAS-Cog” value ([1]; more-severely affected group (baseline ADAS-Cog≧25), CQ vs placebo) was “statistically significant; also recorded: significant effect on preventing cognitive decline” and the “primary clinical outcome of efficacy, ADAS-Cog change from baseline” value ([1]; whole cohort, CQ vs placebo, 36 weeks, on donepezil) was “trend”. For the same molecule, the “plasma Cu” value (plasma Cu) was “no effect”, the “rise of plasma Zn levels” value (plasma Zn; CQ, Phase II trial) was 30% and the “total plasma Zn” value (plasma Zn; administration of CQ vs placebo) was “significant elevation”. For the same molecule, the “overall safety and tolerability” value ([2]; 36 weeks, 250-750 mg/day) was “safe and well tolerated”, the “non-attributable serious adverse event (hospitalization)” value ([2]; CQ arm) was “syncope due to impaired cardiac function” and the albumin ([2]; CQ arm, group LFT changes) was “fell significantly”. For the same molecule, the “γ-GT, AST, ALT and bilirubin” value ([2]; CQ arm, group LFT changes) was “small significant elevation”, the reduction in haemoglobin ([2]; CQ arm, week 24, p=0.003) was 6.88 g/L and the reduction in haemoglobin ([2]; CQ arm, week 36, p=0.03) was 5.5 g/L. The adverse haematological events ([2]; CQ-treated subjects) was “no adverse haematological events”, the “risk of impairment in visual acuity, colour vision, visual fields or fundoscopic abnormalities” value ([2]; between the two arms, McNemar's test) was “no significant differences” and the “overt symptoms or signs of impaired liver function” value ([2]; changes at week 24 returning to normal by week 36) was “No subject developed any overt symptoms or signs of impaired liver function”. For the same molecule, the “likelihood of changes in liver function tests (LFT)” value ([2]; patients on CQ vs placebo) was “more likely”, the “likelihood to develop diarrhoea” value ([2]; patients on CQ vs placebo) was “less likely” and the “Abdominal pain, subjects” value ([2]; treatment arm n = 18) was 2. For the same molecule, the “Constipation, subjects” value ([2]; treatment arm n = 18) was 2, the “Decreased vitamin B12, subjects” value ([2]; treatment arm n = 18) was 0 and the “Diarrhoea, subjects” value ([2]; treatment arm n = 18) was 1. The “Impaired nerve conduction, subjects” value ([2]; treatment arm n = 18) was 3, the “Impaired reflexes, subjects” value ([2]; treatment arm n = 18) was 1 and the “Lymphopoenia, subjects” value ([2]; treatment arm n = 18) was 0. The “Microalbuminurea, subjects” value ([2]; treatment arm n = 18) was 5, the “Nausea, subjects” value ([2]; treatment arm n = 18) was 2 and the “Numb legs, subjects” value ([2]; treatment arm n = 18) was 2. For the same molecule, the “Postural Dizziness, subjects” value ([2]; treatment arm n = 18) was 7, the “Postural Hypotension, subjects” value ([2]; treatment arm n = 18) was 12 and the “Postural Tachyardia, subjects” value ([2]; treatment arm n = 18) was 12. For the same molecule, the “Raised bilirubin, subjects” value ([2]; treatment arm n = 18) was 2, the “Raised γGT, subjects” value ([2]; treatment arm n = 18) was 2 and the “Subjects with +1 postural symptom” value ([2]; treatment arm n = 18) was 13. The “Subjects with =1 GI symptom” value ([2]; treatment arm n = 18) was 5, the “Subjects with =1 abnormal LFT” value ([2]; treatment arm n = 18) was 4 and the “Subjects with =1 neurological symptom” value ([2]; treatment arm n = 18) was 6. The “Mean number discrete Adverse Events Per subject” value ([2]; treatment arm, 61/18) was 3.38, the “number of attributable events reported” value ([2]; treatment group, n = 18) was 61 and the “Abdominal pain, Relative Risk” value ([2]; treatment vs placebo) was 2.0. For the same molecule, the “Diarrhoea, Relative Risk” value ([2]; treatment vs placebo) was 0.25, the “Impaired nerve conduction, Relative Risk” value ([2]; treatment vs placebo) was 3.0 and the “Impaired reflexes, Relative Risk” value ([2]; treatment vs placebo) was 0.5. The “Microalbuminurea, Relative Risk” value ([2]; treatment vs placebo) was 1.00, the “Postural Dizziness, Relative Risk” value ([2]; treatment vs placebo) was 2.33 and the “Postural Hypotension, Relative Risk” value ([2]; treatment vs placebo) was 1.09. The “Raised γGT, Relative Risk” value ([2]; treatment vs placebo) was 2.0, the “Subjects with +1 postural symptom, Relative Risk” value ([2]; treatment vs placebo) was 0.93 and the “Subjects with =1 GI symptom, Relative Risk” value ([2]; treatment vs placebo) was 1.25. For the same molecule, the “Subjects with =1 abnormal LFT, Relative Risk” value ([2]; treatment vs placebo) was 4.0, the “Subjects with =1 neurological symptom, Relative Risk” value ([2]; treatment vs placebo) was 1.5 and the “Mean number discrete Adverse Events Per subject, Mean diff” value ([2]; treatment vs placebo, p = 0.327) was 0.611. The “plasma Aβ40 levels” value (plasma Aβ40; compared with Aβ42 trends, CQ vs placebo) was “overall similar trends”, the “plasma Aβ40, placebo vs CQ groups” value (plasma Aβ40; weeks 8, 32 and 36, less-severely affected groups) was “significant differences” and the “change in plasma Aβ42” value (plasma Aβ42; CQ-treated group, lowering from week 20 onwards, placebo increased) was “declined; also recorded: very significant lowering”. The “plasma Aβ42 changes by severity” value (plasma Aβ42; less-severely affected individuals compared with more-severely affected) was “more evident”, the calf latency (baseline)-calf latency (week 20), Mean within-group change ([3]; Pair 1, paired difference, unit assumed) was 0.575 ms and the “calf latency (baseline)-calf latency (week 36), Mean within-group change” value ([3]; Pair 2, paired difference, in ms (unit assumed)) was “.7937”. The “wrist 1 latency week 1-wrist 1 latency week 20, Mean within-group change” value ([3]; Pair 3, paired difference, in ms (unit assumed)) was “.5824”, the “wrist 1 latency week 1-wrist 1 latency week 36, Mean within-group change” value ([3]; Pair 4, paired difference, in ms (unit assumed)) was “.7875” and the “wrist 2 latency week 1-wrist 2 latency week 20, Mean within-group change” value ([3]; Pair 5, paired difference, in ms (unit assumed)) was 1.000E−01. The “wrist 2 latency week 1-wrist 2 latency week 36, Mean within-group change” value ([3]; Pair 6, paired difference, in ms (unit assumed)) was “.2429”, the “between group differences in nerve conduction parameters” value ([3]; detailed analyses, to week 36) was “no significant between group differences” and the “risk of displaying abnormal nerve conduction” value ([3]; subjects on CQ vs placebo) was “increased risk”.
